Here are results for 15 compounds from US7087757B2, “Phenyl-substituted imidazopyridines” (Ortho-McNeil Pharmaceutical, Inc., priority 2000, dated 2006).

The target of the experiment is T1, human histamine H3 receptor (Homo sapiens, UniProt Q9Y5N1).
T1 construct: One microgram supercoiled H3 receptor cDNA was added to the cells and mixed; expressed in transfected cells; membranes prepared from cell pellets
T1 sequence (Q9Y5N1 whole entry): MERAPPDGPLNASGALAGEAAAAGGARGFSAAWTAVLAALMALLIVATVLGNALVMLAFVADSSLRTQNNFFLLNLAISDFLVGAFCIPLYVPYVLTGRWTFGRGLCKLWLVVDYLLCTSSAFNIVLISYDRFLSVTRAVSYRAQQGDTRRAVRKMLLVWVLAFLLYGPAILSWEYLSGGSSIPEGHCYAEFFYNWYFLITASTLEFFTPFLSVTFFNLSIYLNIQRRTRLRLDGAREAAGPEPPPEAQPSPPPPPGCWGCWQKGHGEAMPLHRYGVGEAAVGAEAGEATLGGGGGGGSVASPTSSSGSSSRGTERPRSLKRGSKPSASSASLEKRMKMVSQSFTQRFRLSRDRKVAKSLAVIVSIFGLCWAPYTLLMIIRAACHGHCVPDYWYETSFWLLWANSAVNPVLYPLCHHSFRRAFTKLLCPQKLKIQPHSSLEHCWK
The experiment is described as follows: [3H]-N-methylhistamine binding. The following applies: membranes of histamine H3 receptor-expressing SK-N-MC cells; 0.8 nM [3H]-N-methylhistamine; 45 minutes at 25° C.; Ki calculated with KD of 800 pM. As to the method: Screening using the human receptor is particularly important for the identification of new therapies for the treatment of human disease.
A 10 cm tissue culture dish with a confluent monolayer of SK-N-MC cells was split two days prior to transfection. Using sterile technique the media was removed and the cells were detached from the dish by the addition of trypsin. One fifth of the cells were then placed onto a new 10 cm dish. Cells were grown in a 37° C. incubator with 5% CO2 in Minimal Essential Media Eagle with 10% Fetal Bovine Serum. After two days cells were approximately 80% confluent. These were removed from the dish with trypsin and pelleted in a clinical centrifuge. […] One microgram supercoiled H3 receptor cDNA was added to the cells and mixed. The voltage for the electroporation was set at 0.25 kV, the capacitance is set at 960 μF.
After electroporation the cells were diluted into 10 mL complete media and plated onto four 10 cm dishes. Due to the variability in the efficiency of electroporation, four different concentrations of cells were plated. The ratios used were: 1:20, 1:10, and 1:5, with the remainder of the cells being added to the fourth dish. The cells were allowed to recover for 24 hours before adding the selection media (complete media with 600 μg/ml G418). After 10 days dishes were analyzed for surviving colonies of cells. Dishes with well-isolated colonies were used. Cells from individual colonies were isolated and tested. SK-N-MC cells were used because they give efficient coupling for inhibition of adenylate cyclase. The clones that gave the most robust inhibition of adenylate cyclase in response to histamine were used for further study.
Cell pellets from histamine H3 receptor-expressing SK-N-MC cells were homogenized in 20 mM Tris HCl/0.5 mM EDTA. Supernatants from a 800 g spin were collected, reccentrifuged at 30,000 g for 30 minutes. Pellets were rehomogenized in 50 mM Tris/5 mM EDTA (pH 7.4). Membranes were incubated with 0.8 nM [^3H]-N-methylhistamine plus/minus test compounds for 45 minutes at 25° C. and harvested by rapid filtration over GF/C glass fiber filters (pretreated with 0.3% polyethylenimine) followed by four washes with ice cold buffer. Filters were dried, added to 4 mL scintillation cocktail and then counted on a liquid scintillation counter.
For `CC1CCn2cc(-c3ccc(CCCCN4CCCCC4)cc3)nc2C1` (stereo not drawn) [Example 41, 7-Methyl-2-[4-(4-piperidin-1-yl-butyl)-phenyl]-5,6,7,8-tetrahydro-imidazo[1,2-a]pyridine], the Ki is 27 nM.
`Cc1cccn2cc(-c3ccc(OCCCNC(C)c4ccccc4)cc3)nc12` (stereo not drawn) [Example 42, 2-(4-alpha-Methylbenzylaminopropoxyphenyl)-8-methylimidazo[1,2-a]pyridine]: the Ki was 1000 nM.
As to `Cc1cccn2cc(-c3ccc(OCCCNCc4ccccc4)cc3)nc12` [Example 43, 2-(4-Benzylaminopropoxyphenyl)-8-methylimidazo[1,2-a]pyridine], the Ki was 1000 nM.
As to `Cc1cccn2cc(-c3ccc(OCCCNC4CCN(Cc5ccccc5)CC4)cc3)nc12` [Example 44, 2-[4-[N-[(1-Benzylpiperidino)amino]propoxy]phenyl]-8-methylimidazo[1,2-a]pyridine], the Ki was 150 nM.
Take `Cc1cccn2cc(-c3ccc(OCCCN4CCN(CCc5ccccc5)CC4)cc3)nc12` [Example 45, 2-[4-[3-(4-Phenethylpiperazino)propoxy]phenyl]-8-methylimidazo[1,2-a]pyridine]: the Ki is 500 nM.
The same measure for `CCCNCC(O)COc1ccc(-c2cn3cccc(C)c3n2)cc1` (stereo not drawn) [Example 46, 2-[4-(2-hydroxy-3-propylaminopropoxy)phenyl]-8-methylimidazo[1,2-a]pyridine]: 1000 nM.
`CCCN(CCC)CC(O)COc1ccc(-c2cn3cccc(C)c3n2)cc1` (stereo not drawn) [Example 47, 2-(4-Dipropylamino(2-hydroxy)propoxyphenyl)-8-methylimidazo[1,2-a]pyridine]: the Ki is 500 nM.
Take `CCCCN(CCCC)CC(O)COc1ccc(-c2cn3cccc(C)c3n2)cc1` (stereo not drawn) [Example 48, 2-(4-Dibutylamino(2-hydroxy)propoxyphenyl)-8-methylimidazo[1,2-a]pyridine]: the Ki is 1000 nM.
Take `Cc1cccn2cc(-c3ccc(OCC(O)CNC(C)(C)C)cc3)nc12` (stereo not drawn) [Example 49, 2-(4-(2-hydroxy-3-(1,1-Dimethylethyl)aminopropoxy)phenyl)-8-methylimidazo[1,2-a]pyridine]: the Ki is 1000 nM.
The same measure for `Cc1cccn2cc(-c3ccc(OCC(O)CN4CCN(CCc5ccccc5)CC4)cc3)nc12` (stereo not drawn) [Example 50, 2-[4-[2-Hydroxy-3-(4-phenethylpiperazino)propoxy]phenyl]-8-methylimidazo[1,2-a]pyridi]: 1000 nM; for `Cc1cccn2cc(-c3ccc(OCC(O)CN4CCN(Cc5ccccc5)CC4)cc3)nc12` (stereo not drawn) [Example 51, 2-[4-[2-Hydroxy-3-(4-benzylpiperazino)propoxy]phenyl]-8-methylimidazo[1,2-a]pyridine]: 5000 nM.
As to `c1ccn2cc(-c3ccc(OCCCN4CCCCC4)cc3)nc2c1` [Example 52, 2-[4-(3-Piperidin-1-yl-propoxy)-phenyl]-imidazo[1,2-a]pyridine], the Ki was 5 nM.
On to `Cc1cccn2cc(-c3ccc(NS(=O)(=O)CCCN4CCCCC4)cc3)nc12` [Example 53, 3-Piperidin-1-yl-propane-1-sulfonic acid [4-(8-methyl-imidazo[1,2-a]pyridin-2-yl)-phenyl]], for which the Ki was 630 nM.
Under `Cc1cccn2cc(-c3ccc(OCCCN4CCCCC4)cc3)nc12` [Example 54, 2-(4-Piperidinopropoxyphenyl)-8-methylimidazo[1,2-a]pyridine] stands 1 nM; under `Cc1cccn2cc(-c3ccc(OCCCN4CCOCC4)cc3)nc12` [Example 55, 2-(4-Morpholinopropoxyphenyl)-8-methylimidazo[1,2-a]pyridine], 25 nM.

What is called Ki is the dissociation constant of the complex between target and ligand, obtained from inhibition or displacement.
